Assay results: US20240383954A1, “PEPTIDE INHIBITORS OF INTERLEUKIN-23 RECEPTOR AND THEIR USE TO TREAT INFLAMMATORY DISEASES” (Janssen Biotech, Inc., priority 2020, published 2024)
Structures can show the parent of a compound that is named as a salt. Starred links: 1 amine or outer side, 2 acyl side, 3 side chain; linkers in the order of their positions; H or OH if unused. Positions of bridges follow the written chain, without caps; N, C: chain ends. Non-standard residues stand in square brackets, D forms with d. Residues, ends and D or L forms follow the SMILES beside them. *: point of attachment. X3 = C[C@H](c1ccc2ccccc2c1)[C@H](N[*:1])C(=O)[*:2]; Trp(7-Me) = Cc1cccc2c(C[C@H](N)C(=O)O)c[nH]c12; Phe(4-NH2) = Nc1ccc(C[C@H](N)C(=O)O)cc1; Ac6c(4,4-F2) = NC1(C(=O)O)CCC(F)(F)CC1; 2Nal = N[C@@H](Cc1ccc2ccccc2c1)C(=O)O; AEF = NCCOc1ccc(C[C@H](N)C(=O)O)cc1; αMeF = C[C@](N)(Cc1ccccc1)C(=O)O; Pen = CC(C)(S)[C@H](N)C(=O)O; αMeK = C[C@](N)(CCCCN)C(=O)O; Thp = NC1(C(=O)O)CCOCC1; Ac3c = NC1(C(=O)O)CC1; Propionyl = CCC(=O)*; Tfa = O=C(C(F)(F)F)*
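Note: cryopreserved PBMCs stimulated at 37 °C in 5% CO2, then lysed, with phosphorylated STAT3 quantified in lysates using a phospho-STAT panel kit.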

What follows are compounds tested against IL-23R (Homo sapiens, UniProt Q5VWK5) (assay: cell-based). Settings: PBMC pSTAT3 IC50 (nM), PBMCs from healthy donors, IL-23 5 ng/mL, 30 minutes, phosphorylated STAT3.
Chain of IL-23R (Q5VWK5 24-629): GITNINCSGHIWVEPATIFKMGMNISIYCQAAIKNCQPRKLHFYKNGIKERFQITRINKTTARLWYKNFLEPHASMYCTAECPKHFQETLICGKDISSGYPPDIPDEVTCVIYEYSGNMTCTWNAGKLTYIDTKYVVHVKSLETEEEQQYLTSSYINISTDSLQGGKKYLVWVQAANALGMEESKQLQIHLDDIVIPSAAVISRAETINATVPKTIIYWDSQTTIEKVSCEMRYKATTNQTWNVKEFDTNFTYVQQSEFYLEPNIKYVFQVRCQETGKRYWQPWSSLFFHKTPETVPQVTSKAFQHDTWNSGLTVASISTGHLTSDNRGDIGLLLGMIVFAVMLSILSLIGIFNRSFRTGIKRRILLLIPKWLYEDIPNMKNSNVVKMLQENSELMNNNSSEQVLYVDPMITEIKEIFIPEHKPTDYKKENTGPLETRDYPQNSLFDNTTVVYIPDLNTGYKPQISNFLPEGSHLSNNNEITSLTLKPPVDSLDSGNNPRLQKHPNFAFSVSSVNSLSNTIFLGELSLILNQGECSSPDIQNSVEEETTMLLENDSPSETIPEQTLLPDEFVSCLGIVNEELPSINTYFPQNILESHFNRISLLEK
Protocol: Cryopreserved peripheral blood mononuclear cells (PBMCs) from healthy donors were thawed and washed twice in ImmunoCult-XF T cell expansion medium (XF-TCEM) supplemented with CTL anti-aggregate wash. […] The cells were stimulated with cytokine for 30 minutes at 37° C. in 5% CO2, transferred onto ice for 10 minutes, and lysed. Cell lysates were stored at −80° C. until phosphorylated STAT3 was measured using the phospho-STAT panel kit (Meso Scale Discovery, K15202D).
Compound `CC(=O)N[C@H](CCCNC(=N)N)C(=O)N[C@H]1CCSC[C@@H](C(=O)N[C@@H](Cc2ccc(OCCN)cc2)C(=O)N[C@@H](Cc2ccc3ccccc3c2)C(=O)NC2(C(=O)N[C@@H](CCC(=O)O)C(=O)N[C@@H](CC(N)=O)C(=O)N[C@@H](Cc3ccccc3)C(N)=O)CCOCC2)NC(=O)[C@H](CCC(N)=O)NC(=O)[C@H](Cc2c[nH]c3ccccc23)NC(=O)[C@H]([C@@H](C)O)NC(=O)[C@H](CCC(N)=O)NC1=O` [Compound 17, Ac-[(D)Arg]-[Abu]-Q-T-W-Q-[Cys]-Phe[4-(2-aminoethoxy)]-[2-Nal]-[THP]-E-N-F-NH2] has an IC50 of 3.4 nM. `CC(=O)NCCCC[C@@H]1NC(=O)[C@H](Cc2c[nH]c3ccccc23)NC(=O)[C@H]([C@@H](C)O)NC(=O)[C@H](CC(N)=O)NC(=O)[C@@H](NC(C)=O)CSSC[C@@](C)(C(=O)N[C@@H](Cc2ccc(OCCN)cc2)C(=O)N[C@@H](Cc2ccc3ccccc3c2)C(=O)N[C@@](C)(CCCCN)C(=O)N[C@@H](CCCCNC(C)=O)C(=O)N[C@@H](CC(N)=O)C(=O)NC2(C(N)=O)CCOCC2)NC1=O` [Compound 121, Ac-[Cys]-N-T-W-[Lys(Ac)]-[aMeCys]-Phe[4-(2-aminoethoxy)]-[2-Nal]-[a-MeLys]-[Lys(Ac)]-N-[THP]-NH2] gave an IC50 of 41 nM. `CC(=O)NCCCC[C@@H]1NC(=O)[C@H](Cc2c[nH]c3c(C)cccc23)NC(=O)[C@H]([C@@H](C)O)NC(=O)[C@H](CC(N)=O)NC(=O)[C@@H](NC(=O)[C@@H](CCCNC(=N)N)NC(C)=O)C(C)(C)SSC(C)(C)[C@@H](C(=O)N[C@@H](Cc2ccc(OCCN)cc2)C(=O)N[C@@H](Cc2ccc3ccccc3c2)C(=O)NC2(C(=O)N[C@@H](CCC(=O)O)C(=O)N[C@@H](CC(N)=O)C(=O)NC3(C(N)=O)CCOCC3)CCC(F)(F)CC2)NC1=O` [Compound 303, MeCO-r-Pen-N-T-7MeW-K(Ac)-Pen-AEF-2Nal-4diFAchx-E-N-THP--CONH2] (Ac-[dR][Pen]NT[Trp(7-Me)]K(Ac)[Pen][AEF][2Nal][Ac6c(4,4-F2)]EN[Thp]-NH2; disulfide 2-7) showed an IC50 of 1.3 nM. In the case of `CC(=O)NCCCC[C@@H]1NC(=O)[C@H](Cc2c[nH]c3ccccc23)NC(=O)[C@H]([C@@H](C)O)NC(=O)[C@H](CCC(N)=O)NC(=O)[C@@H](NC(C)=O)C(C)(C)SSC(C)(C)[C@@H](C(=O)N[C@@H](Cc2ccc(OCCN)cc2)C(=O)N[C@@H](Cc2ccc3ccccc3c2)C(=O)N[C@@](C)(CCCCN)C(=O)N[C@@H](CCCCNC(C)=O)C(=O)N[C@@H](CC(N)=O)C(=O)NC2(C(N)=O)CCOCC2)NC1=O` [Compound 84, Ac-[Pen]-Q-T-W-[Lys(Ac)]-[Pen]-Phe[4-(2-aminoethoxy)]-[2-Nal]-[a-MeLys]-[Lys(Ac)]-N-[THP]-NH2] (Ac-[Pen]QTWK(Ac)[Pen][AEF][2Nal][αMeK]K(Ac)N[Thp]-NH2; disulfide 1-6), the IC50 is reported as 54 nM. With `CC(=O)NCCCC[C@@H]1NC(=O)[C@H](Cc2c[nH]c3c(C)cccc23)NC(=O)[C@H]([C@@H](C)O)NC(=O)[C@H](CC(N)=O)NC(=O)[C@@H](NC(C)=O)C(C)(C)SSC(C)(C)[C@@H](C(=O)N[C@@H](Cc2ccc(OCCN)cc2)C(=O)N[C@@H](Cc2ccc3ccccc3c2)C(=O)N[C@@](C)(CCCCN)C(=O)N[C@@H](CCCCNC(C)=O)C(=O)N[C@@H](CC(N)=O)C(=O)N[C@H](C(N)=O)[C@H](C)c2ccccc2)NC1=O` [Compound 312, MeCO-Pen-N-T-7MeTrp-K(Ac)-Pen-AEF-2Nal-aMeK-K(Ac)-N-bMePhe(S,R)-CONH2] the IC50 was 90 nM. For `CCC(=O)N[C@H](CCCNC(=N)N)C(=O)N[C@@H]1C(=O)N[C@@H](CCC(N)=O)C(=O)N[C@@H]([C@@H](C)O)C(=O)N[C@@H](Cc2c[nH]c3ccccc23)C(=O)N[C@@H](CCC(N)=O)C(=O)N[C@H](C(=O)N[C@@H](Cc2ccc(OCCN)cc2)C(=O)N[C@H](C(=O)NC2(C(=O)N[C@@H](CCC(=O)O)C(=O)N[C@@H](CC(N)=O)C(=O)NC3(C(N)=O)CCOCC3)CCOCC2)[C@H](C)c2ccc3ccccc3c2)C(C)(C)SSC1(C)C` [Compound 307, EtCO-r-Pen-Q-T-W-Q-Pen-AEF-bMe2Nal(2S,3R)-THP-E-N-THP---CONH2] (Propionyl-[dR][Pen]QTWQ[Pen][AEF][X3][Thp]EN[Thp]-NH2; disulfide 2-7), the IC50 was 52 nM. `CC(=O)NCCCC[C@@H]1NC(=O)[C@H](Cc2c[nH]c3c(C)cccc23)NC(=O)[C@H]([C@@H](C)O)NC(=O)[C@H](CC(N)=O)NC(=O)[C@@H](NC(C)=O)C(C)(C)SSC(C)(C)[C@@H](C(=O)N[C@@H](Cc2ccc(OCCN)cc2)C(=O)N[C@@H](Cc2ccc3ccccc3c2)C(=O)NC2(C(=O)N[C@@H](CCCCNC(=O)C(F)(F)F)C(=O)N[C@@H](CC(N)=O)C(=O)N[C@@](C)(Cc3ccccc3)C(N)=O)CCOCC2)NC1=O` [Compound 138, Ac-[Pen]-N-T-[W(7-Me)]-[Lys(Ac)]-[Pen]-Phe[4-(2-aminoethoxy)]-[2-Nal]-[THP]-[Lys(COCF3)]-N-[a-MePhe]-NH2] gave an IC50 of 7.6 nM. With `CC(=O)N[C@H](CCCNC(=N)N)C(=O)N[C@@H]1C(=O)N[C@@H](CCC(N)=O)C(=O)N[C@@H]([C@@H](C)O)C(=O)N[C@@H](Cc2c[nH]c3ccccc23)C(=O)N[C@@H](CCC(N)=O)C(=O)N[C@H](C(=O)N[C@@H](Cc2ccc(OCCN)cc2)C(=O)N[C@@H](Cc2ccc3ccccc3c2)C(=O)NC2(C(=O)N[C@@H](CCCCNC(=O)C(F)(F)F)C(=O)N[C@@H](CC(N)=O)C(=O)N[C@@H](Cc3ccccc3)C(N)=O)CCOCC2)C(C)(C)SSC1(C)C` [Compound 60, Ac-[(D)Arg]-[Pen]-Q-T-W-Q-[Pen]-Phe[4-(2-aminoethoxy)]-[2-Nal]-[THP]-[Lys(COCF3)]-N-F-NH2] (Ac-[dR][Pen]QTWQ[Pen][AEF][2Nal][Thp]K(Tfa)NF-NH2; disulfide 2-7) the IC50 was 44 nM. With `CC(=O)NCCCC[C@H](NC(=O)[C@](C)(CCCCN)NC(=O)[C@H](Cc1ccc2ccccc2c1)NC(=O)[C@H](Cc1ccc(OCCN)cc1)NC(=O)[C@]1(C)CSSC[C@H](NC(C)=O)C(=O)N[C@@H](CC(N)=O)C(=O)N[C@@H]([C@@H](C)O)C(=O)N[C@@H](Cc2c[nH]c3c(C)cccc23)C(=O)N[C@@H](CCC(N)=O)C(=O)N1)C(=O)N[C@@H](CC(N)=O)C(=O)N[C@@](C)(Cc1ccccc1)C(N)=O` [Compound 119, Ac-[Cys]-N-T-[W(7-Me)]-Q-[aMeCys]-Phe[4-(2-aminoethoxy)]-[2-Nal]-[a-MeLys]-[Lys(Ac)]-N-[a-MePhe]-NH2] the IC50 was 5.3 nM. Compound `CC(=O)NCCCC[C@@H]1NC(=O)[C@H](Cc2c[nH]c3c(C)cccc23)NC(=O)[C@H]([C@@H](C)O)NC(=O)[C@H](CC(N)=O)NC(=O)[C@@H](NC(C)=O)C(C)(C)SSC(C)(C)[C@@H](C(=O)N[C@@H](Cc2ccc(OCCN)cc2)C(=O)N[C@@H](Cc2ccc3ccccc3c2)C(=O)N[C@@](C)(CCCCN)C(=O)N[C@@H](CCCCNC(C)=O)C(=O)N[C@@H](CC(N)=O)C(=O)N[C@@](C)(Cc2ccccc2)C(=O)N[C@H](Cc2ccc(N)cc2)C(N)=O)NC1=O` [Compound 114, Ac-[Pen]-N-T-[W(7-Me)]-[Lys(Ac)]-[Pen]-Phe[4-(2-aminoethoxy)]-[2-Nal]-[a-MeLys]-[Lys(Ac)]-N-[a-MePhe]-(D)Phe[4-NH2]-NH2] has an IC50 of 12 nM. `CC(=O)Nc1ccc(C[C@@H]2NC(=O)[C@H](Cc3c[nH]c4c(C)cccc34)NC(=O)[C@H]([C@@H](C)O)NC(=O)[C@H](CC(N)=O)NC(=O)[C@@H](NC(=O)[C@@H](CCCNC(=N)N)NC(C)=O)C(C)(C)SSC(C)(C)[C@@H](C(=O)N[C@@H](Cc3ccc(OCCN)cc3)C(=O)N[C@@H](Cc3ccc4ccccc4c3)C(=O)NC3(C(=O)N[C@@H](CCC(=O)O)C(=O)N[C@@H](CC(N)=O)C(=O)NC4(C(N)=O)CCOCC4)CC3)NC2=O)cc1` [Compound 306, MeCO-r-Pen-N-T-7MeW-Paf(Ac)-Pen-AEF-2Nal-Acpx-E-N-THP---CONH2] (Ac-[dR][Pen]NT[Trp(7-Me)][Phe(4-NH2)](Ac)[Pen][AEF][2Nal][Ac3c]EN[Thp]-NH2; disulfide 2-7) was tested, and the IC50 was 9.6 nM. `CC(=O)N[C@H](CCCNC(=N)N)C(=O)N[C@H]1CCSC[C@@H](C(=O)N[C@@H](Cc2ccc(OCCN)cc2)C(=O)N[C@@H](Cc2ccc3ccccc3c2)C(=O)NC2(C(=O)N[C@@H](CCC(N)=O)C(=O)N[C@@H](CC(N)=O)C(=O)N[C@@](C)(Cc3ccccc3)C(N)=O)CCOCC2)NC(=O)[C@H](CCC(N)=O)NC(=O)[C@H](Cc2c[nH]c3ccccc23)NC(=O)[C@H]([C@@H](C)O)NC(=O)[C@H](CCC(N)=O)NC1=O` [Compound 30, Ac-[(D)Arg]-[Abu]-Q-T-W-Q-[Cys]-Phe[4-(2-aminoethoxy)]-[2-Nal]-[THP]-Q-N-[a-MePhe]-NH2] gave an IC50 of 25 nM. In the case of `CC(=O)NCCCC[C@@H]1NC(=O)[C@H](Cc2c[nH]c3ccccc23)NC(=O)[C@H]([C@@H](C)O)NC(=O)[C@H](CC(N)=O)NC(=O)[C@@H](NC(C)=O)C(C)(C)SSC(C)(C)[C@@H](C(=O)N[C@@H](Cc2ccc(OCCN)cc2)C(=O)N[C@@H](Cc2ccc3ccccc3c2)C(=O)N[C@@](C)(CCCCN)C(=O)N[C@@H](CCCCNC(C)=O)C(=O)N[C@@H](CC(N)=O)C(=O)N[C@@](C)(Cc2ccccc2)C(N)=O)NC1=O` [Compound 98, Ac-[Pen]-N-T-W-[Lys(Ac)]-[Pen]-Phe[4-(2-aminoethoxy)]-[2-Nal]-[a-MeLys]-[Lys(Ac)]-N-[a-MePhe]-NH2], the IC50 is reported as 15 nM. `CC(=O)N[C@H](CCCNC(=N)N)C(=O)N[C@@H]1C(=O)N[C@@H](CCC(N)=O)C(=O)N[C@@H]([C@@H](C)O)C(=O)N[C@@H](Cc2c[nH]c3ccccc23)C(=O)N[C@@H](CCC(N)=O)C(=O)N[C@H](C(=O)N[C@@H](Cc2ccc(OCCN)cc2)C(=O)N[C@@H](Cc2ccc3ccccc3c2)C(=O)NC2(C(=O)N[C@@H](CCC(=O)O)C(=O)N[C@@H](CC(N)=O)C(=O)N[C@@](C)(Cc3ccccc3)C(N)=O)CCOCC2)C(C)(C)SSC1(C)C` [Compound 97, Ac-[(D)Arg]-[Pen]-Q-T-W-Q-[Pen]-Phe[4-(2-aminoethoxy)]-[2-Nal]-[THP]-E-N-[a-MePhe]-NH2] (Ac-[dR][Pen]QTWQ[Pen][AEF][2Nal][Thp]EN[αMeF]-NH2; disulfide 2-7) was tested, and the IC50 was 31 nM.
